In patent publication US20180186769A1, “6-AMINO-5-FLUORO-5-(FLUOROMETHYL)-2,3,4,5-TETRAHYDROPYRIDIN-2-YL-PHENYL-5-(METHOXY-D3)-PYRAZINE-2-CARBOXAMIDES AND FLUORINATED DERIVATIVES THEREOF AS BACE1 INHIBITORS” (H. Lundbeck A/S, priority 2016, published 2018):
pKi: −log10 of the molar value.

Tests used:
[1] = Clearance in hepatocytes, cyno; assay type: in vitro ADME; settings: cynomolgus monkey, read-out: CLint, Cyno (L/h/kg) ± SD (converted)
Source text: (§1) Deuterated compounds were compared to their non-deuterated parent counterparts to determine the impact of deuteration on clearance results

[2] = Clearance in hepatocytes, dog; assay type: in vitro ADME; settings: read-out: CLint, Dog (L/h/kg) ± SD (converted)
Source text: as §1

[3] = Clearance in microsomes, human; assay type: in vitro ADME; settings: 1 microM, read-out: CLint, Human (L/h/kg) ± SD (converted)
Source text: as §1

[4] = test system: Aβ40; assay: Aβ levels in rat brain and plasma following BACE1 inhibition (Aβ40 ELISA); assay type: in vivo, Sprague Dawley rats; settings: p.o.
Description: Assessment of […] in rat brain and plasma following BACE1 inhibition.
Young adult Male Sprague Dawley rats of approximately 250 g weight were purchased from Charles River and received vehicle (2.5% HP betaCD+1M MeSO4, pH 2.5) or 0-40 mg/kg of test compounds (dissolved in vehicle) by oral gavage (p.o). The compounds are dosed at a volume of 5 ml/kg. Cohorts of 5-10 animals were established for each treatment condition.
Studies were set up as acute dose response treatment studies were samples were taken at T=180 minutes after initial dosing, or as 12 h or 24 h timecourse treatment studies. At the end of the test period, the animals were stunned and decapitated with a guillotine. Trunk-blood was sampled in EDTA coated tubes after decapitation of the animal. The blood was centrifuged at 2200G at 4° C. for 15 minutes and the plasma was collected and frozen at −80° C. The blood was aliquoted for Aβ ELISA and DMPK analysis. Immediately following sacrifice, the brain was extracted and split into 2 halves. The left half was dissected; with the front forebrain taken for Aβ ELISA and the remainder used for DMPK analysis. These samples were also snap frozen on dry ice and stored at −80° C. until use for analysis. The right hemibrains were snap frozen on dry ice and stored at −80° C. for independent confirmatory Aβ ELISA evalution.
The cortex samples were thawed slightly on wet ice before they were homogenized with a small volume dispersing instrument (T10 basic ULTRA-TURRAX®) which was set at speed 5 for approximately 5-7 sec. The tissue was processed in a 10 times volume of the weight, for example 100 mg of tissue was homogenized in […] of Homogenization buffer. Homogenization buffer: 50 ml Milli Q water+[…]+0.2% Diethylamin (DEA)+1 tablet of Complete Protease inhibitor cocktail+[…] 4-(2-aminoethyl) benzenesulfonyl fluoride hydrochloride irreversible serine protease inhibitor (AEBSF).
After homogenization 450 μL aliquots of the samples are collected into a 1.5 ml Eppendorf tube and placed on wet ice, 0.5% NP-40 (50 ul) was added to all samples and then they were incubated on ice for 30 min. After which all samples were sonicated using an Ultrasonic homogenizer with 20 kHz homogeneous sound (SONOPLUS HD2070, Bandelin Electronic) 10 pulse set at 12-13% power to extract all the Aβ species. The samples were then centrifuged (Ole Dich 157 MPRF Micro centrifuge) at 20000G for 20 minutes at 4° C. After centrifugation […] of the supernatant was pipetted into 600 μL microtubes tubes and neutralized with 15 µL of 1M Tris-HCL buffer.
WAKO 294-62501 Human/Rat Abeta amyloid-40 kit was used for all ELISA analyses. 30 μL plasma samples or 30 μL of the cortex supernatants generated as described above were placed in 600 μL microtubes tubes on wet ice. To this 30 μL of 8M Urea (AppliChem A1049, 9025) are added to generate a 2-fold dilution. Both plasma and cortex supernatants are incubated on ice for 30 min. Standard rows were prepared from the standard peptide stock provided in the kit and standard diluent containing 1.6M Urea (200 μL 8M Urea+800 μL of standard diluent) and 0.8M Urea (400 μL 8M Urea+[…] Standard diluent). A serial 2-fold dilution of Aβ40 from 100 pmol/ml to 0 pmol/L was prepared for the assay.
After incubation with urea, all samples were further diluted by addition of 5 times standard diluent from the Kit. This was done by adding 240 μL Standard Diluent to 60 μL sample/urea mixture, which was then mixed well. 100 μL of each diluted sample was pipetted into designated wells of the ELISA plate in duplicates. The plate was then covered and incubated overnight at 4° C. The following day, the ELISA kit was brought to room temperature before use. The incubated plate was washed 5 times with the 20× washing solution diluted in Milli Q water. 100 μL HRP-conjugate was applied to each well, and the plate was covered and incubates at 4° C. for 1 hr. The wash was repeated again for 5 times. […]

[5] = target: BACE1 (Homo sapiens, UniProt P56817); assay: BACE1 binding assay (SPA-based); design: biotin (biotinylated form); made in house; host or cells: Freestyle HEK293 cells; settings: pH 4.5, 10 nM radioligand
BACE1, sequence (P56817 46-501): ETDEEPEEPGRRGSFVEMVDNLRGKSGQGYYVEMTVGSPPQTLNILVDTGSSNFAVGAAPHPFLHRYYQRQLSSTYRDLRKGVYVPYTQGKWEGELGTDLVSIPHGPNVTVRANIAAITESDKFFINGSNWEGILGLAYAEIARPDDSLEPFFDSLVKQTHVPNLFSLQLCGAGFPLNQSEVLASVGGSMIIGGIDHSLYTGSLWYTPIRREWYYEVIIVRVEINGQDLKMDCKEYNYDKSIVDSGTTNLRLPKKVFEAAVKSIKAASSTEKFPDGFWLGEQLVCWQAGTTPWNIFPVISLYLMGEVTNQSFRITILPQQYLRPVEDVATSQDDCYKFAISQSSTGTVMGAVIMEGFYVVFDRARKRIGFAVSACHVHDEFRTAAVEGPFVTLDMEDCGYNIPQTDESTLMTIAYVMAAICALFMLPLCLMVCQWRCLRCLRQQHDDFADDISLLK
Description: The binding assay was performed as SPA-based assay using a biotinylated form of human BACE1 recombinantly expressed and subsequently purified from Freestyle HEK293 cells. The binding assay was run in a 50 mM sodium acetate buffer, pH 4.5 containing 50 mM NaCl and 0.03% Tween-20 in white clear bottom 384 plates (Corning #3653). […] The plates were incubated for one hour at room temperature and counted in a Wallac Trilux counter. Total and non-specific binding were determined using buffer and 1 μM (final concentration) of the high affinity BACE1 reference inhibitor (S)-6-[3-chloro-5-(5-prop-1-ynyl-pyridin-3-yl)-thiophen-2-yl]-2-imino-3,6-dimethyl-tetrahydro-pyrimidin-4-one, respectively. For each test compound, a IC50 value (the concentration mediating 50% inhibition of the specific binding of the radioligand) was determined from concentration-response curve and used to calculate the Ki from the equation Ki=IC50/(1+L/Kd), where L and Kd are the final concentration of the radioligand used in the assay and the dissociation constant of the radioligand, respectively. The Kd of the radioligand was determined from saturation binding experiments.

- CLint scaled at 0.1 µM ([1]; 0.1 microM): 75 L/h/kg
- CLint scaled at 0.3 µM ([1]; 0.3 microM): 74 L/h/kg
- CLint scaled at 1 µM ([1]; 1 microM): 20 L/h/kg
- CLint scaled at 0.1 µM ([2]; 0.1 microM): 34 L/h/kg
- CLint scaled at 0.3 µM ([2]; 0.3 microM): 25 L/h/kg
- CLint scaled at 1 µM ([2]; 1 microM): 11 L/h/kg
- CLint scaled at 1 µM [3]: 0.2 L/h/kg
- pKi [5]: 7.77
SMILES: [2H]C([2H])([2H])Oc1cnc(C(=O)Nc2ccc(F)c([C@]3(C)CC[C@@](F)(CF)C(N)=N3)c2)cn1 [Example 1, N-(3-((2S,5S)-6-amino-5-fluoro-5-(fluoromethyl)-2-methyl-2,3,4,5-tetrahydropyridin-2-yl)-4-fluorophenyl)-5-(methoxy-d3)pyrazine-2-carboxamide]
- Aβ40 reduction (%) brain ([4]; 10 mg/kg, 0.5 h): −0.3%
- Aβ40 reduction (%) plasma ([4]; 10 mg/kg, 0.5 h): −0.4%
- Aβ40 reduction (%) brain ([4]; 10 mg/kg, 1 h): 17.2%
- Aβ40 reduction (%) plasma ([4]; 10 mg/kg, 1 h): 29.5%
- Aβ40 reduction (%) brain ([4]; 10 mg/kg, 3 h): 38.3%
- Aβ40 reduction (%) plasma ([4]; 10 mg/kg, 3 h): 21.7%
- Aβ40 reduction (%) brain ([4]; 10 mg/kg, 6 h): 39.4%
- Aβ40 reduction (%) plasma ([4]; 10 mg/kg, 6 h): 15.5%
- Aβ40 reduction (%) brain ([4]; 10 mg/kg, 12 h): 13.7%
- Aβ40 reduction (%) plasma ([4]; 10 mg/kg, 12 h): 20.7%
- Aβ40 reduction (%) brain ([4]; 20 mg/kg, 0.5 h): 14.7%
- Aβ40 reduction (%) plasma ([4]; 20 mg/kg, 0.5 h): 36.5%
- Aβ40 reduction (%) brain ([4]; 20 mg/kg, 1 h): 29.7%
- Aβ40 reduction (%) plasma ([4]; 20 mg/kg, 1 h): 41.4%
- Aβ40 reduction (%) brain ([4]; 20 mg/kg, 3 h): 38.5%
- Aβ40 reduction (%) plasma ([4]; 20 mg/kg, 3 h): 34.5%
- Aβ40 reduction (%) brain ([4]; 20 mg/kg, 6 h): 42.6%
- Aβ40 reduction (%) plasma ([4]; 20 mg/kg, 6 h): 36.9%
- Aβ40 reduction (%) brain ([4]; 20 mg/kg, 12 h): 34.5%
- Aβ40 reduction (%) plasma ([4]; 20 mg/kg, 12 h): 41.3%
- Aβ40 reduction (%) brain ([4]; 40 mg/kg, 0.5 h): 39.8%
- Aβ40 reduction (%) plasma ([4]; 40 mg/kg, 0.5 h): 43.0%
- Aβ40 reduction (%) brain ([4]; 40 mg/kg, 1 h): 43.9%
- Aβ40 reduction (%) plasma ([4]; 40 mg/kg, 1 h): 47.8%
- Aβ40 reduction (%) brain ([4]; 40 mg/kg, 3 h): 50.6%
- Aβ40 reduction (%) plasma ([4]; 40 mg/kg, 3 h): 47.1%
- Aβ40 reduction (%) brain ([4]; 40 mg/kg, 6 h): 59.5%
- Aβ40 reduction (%) plasma ([4]; 40 mg/kg, 6 h): 49.9%
- Aβ40 reduction (%) brain ([4]; 40 mg/kg, 12 h): 57.7%
- Aβ40 reduction (%) plasma ([4]; 40 mg/kg, 12 h): 41.5%
